US6638938B1, “Method for preventing tissue injury from hypoxia” (Cell Therapeutics, Inc., priority 1993, dated 2003)

Columns and labels:
TNFα = test: immunohistochemical staining of lung samples for TNFα; assay type: in vivo; details: hemorrhaged/resuscitated mice or normal mice treated
Source text: In sections from mice subjected to hemorrhage and resuscitation 3 days previously, staining for TNFα was present, particularly in the perivascular areas.

isolated rat lungs = test: human neutrophil perfused isolated rat lungs given IL-8 intratracheally
Procedure: After Sprague-Dawley adult male rats (350±50 g) were anesthetized with pentobarbital (60 mg/kg i.p.), a tracheotomy cannula was placed and secured with 2-O ligature. Lungs were ventilated with a tidal volume of 3 cc at a rate of 60/min. with a gas mixture containing 5% CO2 21% O2 and 74% N2. Following midline thoracotomy, a 4-O ligature was loosely placed around the root of the pulmonary outflow tract. Heparin (200 units) was injected into the right ventricle and allowed to recirculate. A rigid cannula was placed into the right ventricle, threaded into the pulmonary outflow tract, and secured with the ligature. The left ventricle was incised and a drainage cannula was inserted and secured with a 2-O ligature. Lungs and heart were excised, placed in an isolated lung chamber, and ventilated with 2.5 cm of positive end-expiratory pressure. Lungs were perfused free of blood using Earle's Balanced Salt Solution (Sigma) containing calcium chloride (0.265 g/L), magnesium sulfate (0.09767 g/L), potassium chloride (0.4 g/L), sodium chloride (6.8 g/L), sodium phosphate monobasic (0. 122 g/L) and D-glucose (1 g/L) to which was added sodium bicarbonate (2.2 g/L.) and Ficoll-70 (Sigma)(40 g/L), and the final pH adjusted to 7.40. […] Pulmonary artery pressures were continuously monitored with a transducer and weight increases were monitored with a force transducer. […]

isolated rat kidneys = test: ischemic isolated rat kidney reperfused with human neutrophils; details: Ischemia + neutrophils + Lisofylline
Source text: This example illustrates an in vivo kidney model of hypoxic tissue injury using Lisofylline. Isolated rat kidneys were rendered ischemic and reperfused with human neutrophils (prepared as in example 4 above) according to the procedure in Linas et al;, Am. J. Physiol. 24:728-735, 1988. Lisofylline decreased injury in this ischemic isolated rat kidney model according to the data presented in Table 8 below wherein GFR refers to glomerular filtration rate and TNa refers to tubular sodium reabsorption.

[1] = tested on: human neutrophils (PA, lyso-PA); test: PA and lyso-PA mass in human neutrophils after hypoxia/reoxygenation; assay type: cell-based
Procedure: This example provides evidence from a group of experiments of the nexus and relationship between inhibiting linoleate-enriched PA species and reversal of hypoxic/reoxygenation tissue injury with Lisofylline. Lisofylline treated human neutrophils were exposed to hypoxia and then reoxygenation in vitro. Human neutrophils (PMN) were prepared from heparinized blood obtained from consenting, healthy human volunteers, isolated and highly purified (>99%)-by percoll gradient anddifferential centrifugation and resuspended in HBSS (Hanks balanced salt solution). Human neutrophils were placed in hypoxia (95% N2+5% CO2) for 60 min and then reoxygenated (21% O2+5% CO2) for 20 min.
Following hypoxia/reoxygenation, human neutrophils had increased PA concentrations with a retention time (Rf) characteristic of linoleate-enriched PA species. The analysis was done by fixing the neutrophils in ice-cold methanol, extracting the lipids and then separating them by HPLC using a Waters μ-Porosil silica column and an anisocratic gradient (Bursten et al., J. Biol. Chem. 266:20732, 1991). Lipids in the column effluent were monitored at 206-224nm. HPLC fractions were also analyzed by thin layer chromatography (TLC), amine content, acyl content and mass spectroscopy to confirm peak identities. Fast-atom bombardrment (FAB) mass spectroscopy spectra were acquired using a VG 70 SEQ tandem hybrid instrument of EBqQ geometry (VG Analytical, Altricham UK) as described in Bursten et al. The mass of total PA varied from 0.65-0.75% in unstimulated neutrophils to 2.7-3.6% of total detectable lipids in stimulated neutrophils (i.e., increased by 3.5-5 fold), whereas lyso-PA mass in neutrophils pretreated with Lisofylline and subject to hypoxia/reoxygenation stimulation could range as high as 7-8% of total detectable lipids. Hypoxia/reoxygenated neutrophils preincubated with 10 μM to 100 μM Lisofylline had decreased PA and increased lyso-PA total mass compared to untreated but stimulated neutrophils.

[2] = hypoxia/reoxygenated neutrophils preincubated with 10 μM to 100 μM, versus untreated but stimulated

C[C@@H](O)CCCCn1c(=O)c2c(ncn2C)n(C)c1=O [Lisofylline, 1-R-(5-hydroxyhexyl)-3,7-dimethylxanthine]
immunohistochemical staining of lung for TNFα (TNFα): no signal | Lung Weight Gain (isolated rat lungs; Neutrophils + IL-8 + Lisofylline 1 μM): 0.0 ± 0.0 (3)δ g | Lung Weight Gain (isolated rat lungs; Neutrophils + IL-8 + Lisofylline 50 μM): 0.0 ± 0.0 (4)δ g | TNa (tubular sodium reabsorption) (isolated rat kidneys; control 90%, ischemia + neutrophils 40%): 78% (n = 6) | GFR (glomerular filtration rate) (isolated rat kidneys; control 250, ischemia + neutrophils 113): 202 (n = 6) | PA total mass [1, 2]: decreased | lyso-PA total mass [1, 2]: increased | lyso-PA mass ([1]; neutrophils pretreated with Lisofylline, hypoxia/reoxygenation stimulation, could range as high as): 7-8 % of total detectable lipids
